Reference: patent US9028890B2, “Composition for improving sexual wellness” (Horphag Research (IP) Pre Ltd., priority 2010, dated 2015)

How the values were obtained:
[1] = tested on: Adult women of all ages with a score lower than four points for all five domains; experiment: Women responding by FSFI: score equal to or higher than four points for all five domains after four weeks (Examples 3, 5, 6); format: in vivo, human; conditions: daily supply, four weeks treatment
Source text: Women's sexual function is scored using the established “Female Sexual Function Index” (FSFI) questionnaire [Rosen et al., 2000]. The questionnaire allows to score prevalence of six subcategories (domains) related to female sexual function, with minimum and maximum scores given:
Adult women of all ages were investigated who presented with a score lower than four points out of maximum six points for all five domains.
The investigation depicts the number of responders to the intervention as detailed in the tables after four weeks treatment with a score equal to or higher than four points for all five domains.

postmenopausal women [2] = conditions: taken together with supplemental hormones, cited from earlier work
postmenopausal women [3] = conditions: cited from earlier work

## N=C(N)NCCC[C@H](N)C(=O)O [2.8 g L-arginine, L-arginine]
[1]
  Responders (women responding with improvement / n): 5/26

## CCCc1nn(C)c2c(=O)[nH]c(-c3cc(S(=O)(=O)N4CCN(C)CC4)ccc3OCC)nc12 [sildenafil]
Postmenopausal women [2]; 202 postmenopausal women, placebo group 43 percent
  women who reported improved genital sensations: 57%
Postmenopausal women [2]; placebo group 27 percent
  group members who reported greater satisfaction with sex: Forty-one
Postmenopausal women [3]
  treatment of SD: not effective
